Measurements published in ChEMBL document CHEMBL1151440, “Safety and pharmacokinetics of GSK364735, a human immunodeficiency virus type 1 integrase inhibitor, following single and repeated administration in healthy adult subjects” (Antimicrob Agents Chemother, 2007).

Experiments:
[1] = test system: Human immunodeficiency virus 1; experiment: Antiviral activity against HIV1 BaL in peripheral blood lymphocytes; assay type: functional, organism-based; settings: Human immunodeficiency virus 1, BaL
[2] = Terminal elimination half life in iv dosed rat; assay type: ADME, organism-based; settings: in vivo, read-out: beta t1/2 (converted)
[3] = Terminal elimination half life in iv dosed dog; assay type: ADME, organism-based, Canis lupus familiaris; settings: in vivo, read-out: beta t1/2 (converted)
[4] = Terminal elimination half life in iv dosed monkey; assay type: ADME, organism-based, Macaca mulatta; settings: rhesus monkey, in vivo, read-out: beta t1/2 (converted)
[5] = Plasma concentration in human at 50 mg administered with fat meal every 12 hrs for 8 days measured on day 1 after 12 hrs of first dose; assay type: ADME, organism-based
[6] = Plasma concentration in human at 100 mg administered with fat meal every 12 hrs for 8 days measured on day 1 after 12 hrs of first dose; assay type: ADME, organism-based
[7] = Plasma concentration in human at 400 mg administered with fat meal every 12 hrs for 8 days measured on day 1 after 12 hrs of first dose; assay type: ADME, organism-based
[8] = Plasma concentration in human at 200 mg administered with fat meal every 8 hrs for 8 days measured on day 1 after 12 hrs of first dose; assay type: ADME, organism-based
[9] = Apparent oral clearance in human at 100 mg administered with fat meal every 12 hrs for 8 days measured on day 1; assay type: ADME, organism-based; settings: in vivo
[10] = Apparent oral clearance in human at 200 mg administered with fat meal every 12 hrs for 8 days measured on day 1; assay type: ADME, organism-based; settings: in vivo
[11] = Apparent oral clearance in human at 400 mg administered with fat meal daily for 8 days measured on day 1; assay type: ADME, organism-based; settings: in vivo
[12] = Apparent oral clearance in human at 200 mg administered with fat meal every 8 hrs for 8 days measured on day 1; assay type: ADME, organism-based; settings: in vivo
[13] = AUC (0 to 12 hrs) in human at 50 mg administered with fat meal every 12 hrs for 8 days measured on day 8; assay type: ADME, organism-based; parameters: dose 50 mg, time < 12 hr; settings: plasma
[14] = AUC (0 to 8 hrs) in human at 200 mg administered with fat meal every 8 hrs for 8 days measured on day 8; assay type: ADME, organism-based; parameters: time < 8 hr, dose 200 mg; settings: plasma
[15] = Cmax in human at 400 mg administered with fat meal daily for 8 days measured on day 8; assay type: ADME, organism-based; parameters: dose 400 mg; settings: in vivo
[16] = Cmax in human at 200 mg administered with fat meal every 8 hrs for 8 days measured on day 8; assay type: ADME, organism-based; parameters: dose 200 mg; settings: in vivo
[17] = Tmax in human at 200 mg administered with fat meal every 12 hrs for 8 days measured on day 8; assay type: ADME, organism-based; settings: in vivo
[18] = Terminal elimination half life in human at 50 mg administered with fat meal every 12 hrs for 8 days measured on day 8; assay type: ADME, organism-based; settings: in vivo, read-out: beta t1/2 (converted)
[19] = Terminal elimination half life in human at 200 mg administered with fat meal every 8 hrs for 8 days measured on day 8; assay type: ADME, organism-based; settings: in vivo, read-out: beta t1/2 (converted)
[20] = Oral bioavailability in monkey; assay type: ADME, organism-based, Macaca mulatta; settings: rhesus monkey, in vivo
[21] = test system: Homo sapiens; experiment: Toxicity in human assessed as adverse effect at 50 to 200 mg administered as single dose; assay type: organism-based; settings: in vivo
[22] = test system: Homo sapiens; experiment: Toxicity in human assessed as headache at 50 to 200 mg administered as single dose; assay type: organism-based; settings: in vivo
[23] = test system: Homo sapiens; experiment: Toxicity in human assessed as changes in 12-lead ECG at 50 to 200 mg administered as single dose; assay type: organism-based; settings: in vivo
[24] = test system: Homo sapiens; experiment: Toxicity in human assessed as adverse effect at 50 mg administered every 12 hrs for 8 days; assay type: organism-based; settings: in vivo
[25] = test system: Homo sapiens; experiment: Toxicity in human assessed as adverse effect at 100 mg administered every 12 hrs for 8 days; assay type: organism-based; settings: in vivo
[26] = test system: Homo sapiens; experiment: Toxicity in human assessed as headache at 200 mg administered every 12 hrs for 8 days; assay type: organism-based; settings: in vivo
[27] = species: Homo sapiens; experiment: Toxicity in human assessed as adverse effect at 400 mg daily for 8 days; assay type: organism-based; settings: in vivo, 192 h
[28] = species: Homo sapiens; experiment: Toxicity in human assessed as dizziness at 400 mg daily for 8 days; assay type: organism-based; settings: in vivo, 192 h
[29] = test system: Homo sapiens; experiment: Toxicity in human assessed as headache at 200 mg administered every 8 hrs for 8 days; assay type: organism-based; settings: in vivo
[30] = test system: Homo sapiens; experiment: Toxicity in human assessed as dizziness at 200 mg administered every 8 hrs for 8 days; assay type: organism-based; settings: in vivo
[31] = test system: Homo sapiens; experiment: Toxicity in human assessed as changes in hematology at 50 to 400 mg after sequential repeated administration for 8 days; assay type: organism-based; settings: in vivo, 192 h
[32] = test system: Homo sapiens; experiment: Toxicity in human assessed as changes in vital sign at 50 to 400 mg after sequential repeated administration for 8 days; assay type: organism-based; settings: in vivo, 192 h
[33] = AUC (0 to infinity) in human at 200 mg administered with fat meal as single dose; assay type: ADME, organism-based; parameters: dose 200 mg, time infinity; settings: plasma
[34] = Cmax in fasted human at 50 mg administered as single dose; assay type: ADME, organism-based; parameters: dose 50 mg; settings: in vivo
[35] = Apparent oral clearance in human at 200 mg administered with fat meal every 12 hrs for 8 days measured on day 8; assay type: ADME, organism-based; settings: in vivo
[36] = Apparent oral clearance in human at 400 mg administered with fat meal daily for 8 days measured on day 8; assay type: ADME, organism-based; settings: in vivo
[37] = Apparent oral clearance in human at 200 mg administered with fat meal every 8 hrs for 8 days measured on day 8; assay type: ADME, organism-based; settings: in vivo
[38] = Cmax in fasted human at 100 mg administered as single dose; assay type: ADME, organism-based; parameters: dose 100 mg; settings: in vivo
[39] = Cmax in human at 200 mg administered with fat meal as single dose; assay type: ADME, organism-based; parameters: dose 200 mg; settings: in vivo
[40] = Cmax in human at 400 mg administered with fat meal as single dose; assay type: ADME, organism-based; parameters: dose 400 mg; settings: in vivo
[41] = Tmax in fasted human at 400 mg administered as single dose; assay type: ADME, organism-based; settings: in vivo
[42] = Terminal elimination half life in fasted human at 50 mg administered as single dose; assay type: ADME, organism-based; settings: in vivo, read-out: beta t1/2 (converted)
[43] = Terminal elimination half life in fasted human at 100 mg administered as single dose; assay type: ADME, organism-based; settings: in vivo, read-out: beta t1/2 (converted)
[44] = Terminal elimination half life in fasted human at 200 mg administered as single dose; assay type: ADME, organism-based; settings: in vivo, read-out: beta t1/2 (converted)
[45] = Apparent oral clearance in fasted human at 100 mg administered as single dose; assay type: ADME, organism-based; settings: in vivo
[46] = Apparent oral clearance in fasted human at 200 mg administered as single dose; assay type: ADME, organism-based; settings: in vivo
[47] = Apparent oral clearance in fasted human at 400 mg administered as single dose; assay type: ADME, organism-based; settings: in vivo
[48] = Apparent oral clearance in human at 200 mg administered with fat meal as single dose; assay type: ADME, organism-based; settings: in vivo
[49] = Apparent oral clearance in human at 400 mg administered with fat meal as single dose; assay type: ADME, organism-based; settings: in vivo
[50] = Apparent oral clearance in human at 100 mg administered with fat meal every 12 hrs for 8 days measured on day 8; assay type: ADME, organism-based; settings: in vivo
[51] = AUC (0 to infinity) in human at 200 mg administered with fat meal every 8 hrs for 8 days measured on day 1; assay type: ADME, organism-based; parameters: dose 200 mg, time infinity; settings: plasma
[52] = Cmax in human at 100 mg administered with fat meal every 12 hrs for 8 days measured on day 1; assay type: ADME, organism-based; parameters: dose 100 mg; settings: in vivo
[53] = Cmax in human at 200 mg administered with fat meal every 8 hrs for 8 days measured on day 1; assay type: ADME, organism-based; parameters: dose 200 mg; settings: in vivo
[54] = Tmax in human at 100 mg administered with fat meal every 12 hrs for 8 days measured on day 1; assay type: ADME, organism-based; settings: in vivo
[55] = Tmax in human at 200 mg administered with fat meal every 8 hrs for 8 days measured on day 1; assay type: ADME, organism-based; settings: in vivo
[56] = Terminal elimination half life in human at 50 mg administered with fat meal every 12 hrs for 8 days measured on day 1; assay type: ADME, organism-based; settings: in vivo, read-out: beta t1/2 (converted)
[57] = Terminal elimination half life in human at 100 mg administered with fat meal every 12 hrs for 8 days measured on day 1; assay type: ADME, organism-based; settings: in vivo, read-out: beta t1/2 (converted)
[58] = species: Homo sapiens; experiment: Protein binding in human plasma by equilibrium dialysis assay; settings: read-out: PB

Structure (SMILES): Cn1c(=O)c(C(=O)NCCO)c(O)c2ncc(Cc3ccc(F)cc3)cc21 [GSK-364735]
- IC50 [1]: 1.2 nM
- half-life [2]: 1.5 h
- half-life [3]: 1.5 h
- half-life [4]: 1.5 h
- concentration at 12 h [5]: 93 ng/mL
- concentration at 12 h [6]: 160 ng/mL
- concentration at 12 h [7]: 340 ng/mL
- concentration at 12 h [8]: 130 ng/mL
- CL/F [9]: 147 mL/min
- CL/F [10]: 367 mL/min
- CL/F [11]: 433 mL/min
- CL/F [12]: 567 mL/min
- AUC at 12 h [13]: 5600 ng·h/mL
- AUC at 8 h [14]: 4900 ng·h/mL
- Cmax [15]: 2100 ng/mL
- Cmax [16]: 970 ng/mL
- Tmax [17]: 3 h
- half-life [18]: 3.7 h
- half-life [19]: 4 h
- bioavailability [20]: 6%
- Activity [21]: 4%
- Activity [22]: 4%
- Activity [23]: Non-toxic
- Activity [24]: 25%
- Activity [25]: 38%
- Activity [26]: 13%
- Activity [27]: Non-toxic
- Activity [28]: Non-toxic
- Activity [29]: 13%
- Activity [30]: 13%
- Activity [31]: Non-toxic
- Activity [32]: Non-toxic
- AUC(0-inf) [33]: 11000 ng·h/mL
- Cmax [34]: 760 ng/mL
- CL/F [35]: 350 mL/min
- CL/F [36]: 550 mL/min
- CL/F [37]: 683 mL/min
- Cmax [38]: 1000 ng/mL
- Cmax [39]: 1300 ng/mL
- Cmax [40]: 840 ng/mL
- Tmax [41]: 2.2 h
- half-life [42]: 3.1 h
- half-life [43]: 2.9 h
- half-life [44]: 5.3 h
- CL/F [45]: 317 mL/min
- CL/F [46]: 600 mL/min
- CL/F [47]: 1020 mL/min
- CL/F [48]: 317 mL/min
- CL/F [49]: 783 mL/min
- CL/F [50]: 138 mL/min
- AUC(0-inf) [51]: 5900 ng·h/mL
- Cmax [52]: 2500 ng/mL
- Cmax [53]: 1100 ng/mL
- Tmax [54]: 3.25 h
- Tmax [55]: 3.75 h
- half-life [56]: 2.6 h
- half-life [57]: 3.1 h
- fraction unbound [58]: 0.01
